Reference: patent US8889894B2, “Compounds for use in therapy” (Bangor University, priority 2008, dated 2014)

Columns and labels:
[1] = tested on: C547BL/6 mice; test: Histo-pathological examination of lung tissue (haematoxylin and eosin, score 0-5); type: in vivo; conditions: 48 hours after intratracheal liposomes; lavaged lungs, double-blinded pathologist score; FIG. 4
Source text: Lavaged lungs were ectomised to allow for histo-pathological examination of the lung tissue. A haematoxylin and eosin staining of the paraffin lung sections was followed by a thorough examination by a skilled pathologist who scored the sections according to the following criteria in a double-blinded manner:
1=a minority of the bronchi are surrounded by some infiltrated inflammatory cells
2=the majority of the bronchi are surrounded by some infiltrated inflammatory cells
3=dispersed are some heavy infiltrates of neutrophils and eosinophils
4=a lot of infiltrating neutrophils and eosinophils throughout the entire lung section
5=same as 4 with additionally signs of airway remodelling e.g. basal membrane thickening, mucus overproduction and/or smooth muscle cell hyperplasia

[2] = tested on: C547BL/6 mice; test: Inflammatory cell infiltration to the airways (BAL, flowcytometry); type: in vivo; conditions: 48 hours after intratracheal liposomes; BAL-fluid; compared to empty liposome treatment
Method: (§1) Briefly, the compounds were mixed with phosphatidylcholine (Sigma) in chloroform. The chloroform was evaporated and the lipids recovered in sterile saline. After ultrasound sonication and vortexing, samples of 25 μg mycolic acids/100 μl/mouse were administered intratracheally. A liposome control was prepared similarly, but without the addition of any mycolic acid compound.
In order to be considered safe for therapeutic administration, compounds should preferably cause as little local inflammation or resulting tissue changes as possible.
After 48 hours, mice were sacrificed and a broncho-alveolar lavage (BAL) was performed to measure the airway cell types and numbers by flowcytometry. Increased cell numbers and the appearance of granulocytes (mainly neutrophils) in the BAL-fluid are indicative for cell recruitment to the airways as result of an inflammatory reaction.

[3] = tested on: CD4+ T-helper (Th) lymphocytes; test: mRNA expression patterns by RT-qPCR of CD4+ T-helper lymphocytes from asthmatic mouse lungs; type: in vivo; conditions: compounds in liposomes; with reference to empty liposome treatment; FIG. 7
Source text: From the previous examples it can be concluded that the synthetic mycolic acids have a significant effect on immune reactivity. The nature of the immune modification appears to be structure dependent. This can be seen from examination of mRNA expression patterns by RT-qPCR of CD4+ T-helper (Th) lymphocytes, isolated from asthmatic mouse lungs after treatment with compounds 6, 8 and 9 formulated into liposomes. The results are shown in FIGS. 7a to e with reference to an empty liposome treatment. All of the synthetic mycolic acid isomers repressed the transcription of the Th2 effector cytokine IL-4 to some degree.

[4] = tested on: Th2-driven allergic airway inflammation; test: Suppression of allergic airway inflammation in a mouse asthma model (OVA/Alum immunised, OVA-aerosol challenge); type: in vivo; conditions: liposomes intratracheally to OVA/Alum immunised mice, OVA-aerosol challenge after 7 days; flowcytometry (CCR3+); vs empty liposomes; FIG. 5
Method: as §1
Liposome containing synthetic mycolic acids compounds 5, 6 and 7 were administered intratracheally to mice which had been immunised for the experimental allergen chicken egg ovalbumin (OVA) adjuvanted with Alum (aluminium hydroxide). Following 7 days, the mice were challenged with OVA-aerosol. Th2-driven allergic airway inflammation was apparent in empty liposomes treated animals, from high eosinophil counts in the BAL-fluid by flowcytometry (CCR3^+).

[5] = tested on: alveolar macrophages; test: Foaming of mycolic acid treated alveolar macrophages (ORO-stained lung sections); type: in vivo, C57BL/6 mice; conditions: single intratracheal dose of liposomes carrying compound, a week earlier; compared with empty liposomes or liposomes containing compound 1; FIG. 2
Method: as §1
Formation of cholesterol-rich foamy alveolar macrophages upon intratracheal instillation of mycolic acid containing liposomes is indicative of a possible mycolic acid induced suppression of Th2-mediated eosinophilia. In a mouse model of allergic asthma this is mediated by a mechanism involving antigen presentation by these foam cells and the activity of regulatory T-lymphocytes (Korf et al, Am. J. Respir. Crit. Care Med., 174, 1-9, 2006).
We verified the induction of cholesterol-loaded cells in the lungs of C57BL/6 mice that received a single dose of liposomes carrying compounds a week earlier. The mice were treated with empty liposomes, liposomes containing control compound 1, liposomes containing compound 2 and liposomes containing compound 4. Frozen lung sections were stained with the lipophilic Oil Red O dye (ORO) thereby visualising foam cell intracellular lipid vesicles and counterstained with haematoxylin. […]

inflammatory cell infiltration to the airways [2]	Compound	lung tissue changes [1]	scores of ORO positive cells/microscopic field [5]	also measured
do not	CCCCCCCCCCCCCCCCCCCC[C@H]1C[C@H]1CCCCCCCCCCCCCCC1C[C@H]1CCCCCCCCCCC[C@@H](O)[C@@H](CC)C(=O)O (some centres unmarked) [Compound 3]	did not cause any significant lung tissue changes		
	CCCCCCCCCCCCCCCCCCCCCCCC[C@@H](C(=O)O)[C@H](O)CCCCCCCCCCCCCCCCC[C@@H]1CC1CCCCCCCCCCCCCCCC[C@@H](OC)[C@@H](C)CCCCCCCCCCCCCCCCCC (some centres unmarked) [Compound 6]			FoxP3 (regulatory T-cell) response [3]: especially good in suppressing; Gata-3 transcription (Th2) [3]: especially good in suppressing; IL-4 transcription (Th2 effector cytokine) [3]: especially good in suppressing; eosinophil count in the BAL-fluid [4]: at least two-fold decreased
do not	CCCCCCCCCCCCCCCCCCCCCCCC[C@@H](C(=O)O)[C@H](O)CCCCCCCCCCCCCCCC[C@H]1C[C@@H]1[C@@H](C)CCCCCCCCCCCCCCCCCCC(=O)C(C)CCCCCCCCCCCCCCCCCC (some centres unmarked) [Compound 4]	did not cause any significant lung tissue changes	significantly higher scores	
	CCCCCCCCCCCCCCCCCCCCCCCC[C@@H](C(=O)O)[C@H](O)CCCCCCCCCCC[C@H]1CC1CCCCCCCCCCCCCC[C@H]1C[C@H]1CCCCCCCCCCCCCCCCCCCC (some centres unmarked) [Compound 2]		significantly higher scores	
	CCCCCCCCCCCCCCCCCCCCCCCC[C@@H](C(=O)O)[C@H](O)CCCCCCCCCCCCCCC[C@@H]1C[C@@H]1CCCCCCCCCCCCCCCCCCC(=O)[C@@H](C)CCCCCCCCCCCCCCCCCC (single isomer, unassigned) [Example 3]			melting point: 66 to 68 °C
